This is an account of results in ChEMBL document CHEMBL1201862, “PubChem BioAssay data set” (2004).

Some test systems named below: OVCAR-8; CCRF-CEM; SF-295; SF-539; CAKI-1; OVCAR-3; ACHN; MCF7; HT-29; PC-3; M14; SK-MEL-5; OVCAR-5; UO-31; LOX IMVI; SR; MDA-N; SK-MEL-2; SN12C.
What all share (test): NCI anticancer screen, dose series, 48 h

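1) Cells in 96-well plates. 2) Compound, 48 h, 5 concentrations. 3) Linear interpolation between surrounding doses. 4) Unreached endpoint = highest concentration. GI50 marks 50% less growth.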 Calls of active or inactive are those of the source. No stated cut-off is given here; in the data, active = GI50 up to about 1.1 µM and inactive = higher. Some results are limits rather than exact numbers.

In the case of `O=S(=O)([C-]([I+]c1ccccc1)S(=O)(=O)C(F)(F)C(F)(F)C(F)(F)C(F)(F)F)C(F)(F)C(F)(F)C(F)(F)C(F)(F)F`, the GI50 was > 10 µM (inactive) in the experiment on OVCAR-8; 4.06 µM (inactive) in the experiment on CCRF-CEM; 16.6 µM (inactive) in the experiment on SF-295; 15.5 µM (inactive) in the experiment with SF-539; 13.2 µM (inactive) in the experiment on CAKI-1; 15.9 µM (inactive) in the experiment with OVCAR-3. In addition, the GI50 was 6.49 µM (inactive) in the experiment with ACHN; 6.05 µM (inactive) in the experiment with MCF7; 17.4 µM (inactive) in the experiment with HT-29; 17.2 µM (inactive) with PC-3; 13.6 µM (inactive) with M14; 14.4 µM (inactive) in the experiment with SK-MEL-5. The GI50 was 17.2 µM (inactive) with OVCAR-5, 13.2 µM (inactive) in the experiment with UO-31, 14.4 µM (inactive) in the experiment with LOX IMVI and 4.14 µM (inactive) in the experiment with SR.
As to `O=c1c2ccccc2c2ccccc2c(=O)n1-c1cc2c3ccccc3ccc2c2ccccc12`, the GI50 in the experiment on OVCAR-8, with SF-295, in the experiment with SF-539, in the experiment with CAKI-1, in the experiment with OVCAR-3 and in the experiment on MDA-N was > 100 µM (inactive) in each case. For the same molecule, the GI50 in the experiment on SK-MEL-2 was > 100 µM (inactive); in the experiment on ACHN, > 100 µM (inactive); with MCF7 it was 91.8 µM (inactive); in the experiment on HT-29, > 100 µM (inactive); in the experiment with PC-3, > 100 µM (inactive); with M14, > 100 µM (inactive). Besides, the GI50 was 84.5 µM (inactive) with SN12C; > 100 µM (inactive) in the experiment with SK-MEL-5; > 100 µM (inactive) in the experiment with OVCAR-5; > 100 µM (inactive) with UO-31; > 100 µM (inactive) with LOX IMVI.
Take `O=[N+]([O-])/C(C(Cl)=C(Cl)Cl)=C(\Nc1cccc2cccnc12)SCc1ccccc1`: the GI50 in the experiment on CCRF-CEM was 14.9 µM (inactive); in the experiment with SF-295, 18.7 µM (inactive); with SF-539, 16.9 µM (inactive); with CAKI-1, 20.7 µM (inactive); with OVCAR-3, 15.5 µM (inactive); with MDA-N, 31.1 µM (inactive). Moreover, the GI50 with SK-MEL-2 was 12.6 µM (inactive); in the experiment on ACHN, 23.3 µM (inactive); in the experiment on MCF7, 15.3 µM (inactive); in the experiment on HT-29 it was 23.6 µM (inactive); in the experiment on PC-3, 14.8 µM (inactive); with M14 it was 27.5 µM (inactive). Further, the GI50 was 25.3 µM (inactive) with SN12C, 30.8 µM (inactive) in the experiment on OVCAR-5 and 18.3 µM (inactive) in the experiment on UO-31.
With `CN/N=C(\C)C(CN1CCCCC1)C(C1=C(O)c2ccccc2OC1)c1ccccc1` (stereo unspecified), the GI50 in the experiment with OVCAR-8 was > 100 µM (inactive); in the experiment with CCRF-CEM, 69.2 µM (inactive); in the experiment on SF-295, 82 µM (inactive); with SF-539, > 100 µM (inactive); in the experiment on CAKI-1 it was > 100 µM (inactive); in the experiment on OVCAR-3 it was > 100 µM (inactive). The GI50 in the experiment with SK-MEL-2, in the experiment with ACHN, in the experiment on HT-29, in the experiment with M14, in the experiment with SN12C and with SK-MEL-5 was > 100 µM (inactive) throughout. Further, the GI50 with OVCAR-5 was > 100 µM (inactive); with UO-31, 50.4 µM (inactive); in the experiment on LOX IMVI, > 100 µM (inactive); with SR, 51.3 µM (inactive).
For `O=C(C[N+]12CN3CN(CN(C3)C1)C2)c1ccc(-c2ccccc2)cc1`, the GI50 in the experiment with OVCAR-8 is 32 µM (inactive); with CCRF-CEM it was 1.71 µM (inactive); in the experiment with SF-295, 19.8 µM (inactive); in the experiment on CAKI-1 it was 43.9 µM (inactive); in the experiment with OVCAR-3, 29.3 µM (inactive); in the experiment on MDA-N, 21.8 µM (inactive). Further, the GI50 was 18.3 µM (inactive) in the experiment with SK-MEL-2; 21.4 µM (inactive) in the experiment with ACHN; 22.5 µM (inactive) with HT-29; 16 µM (inactive) with PC-3; 21.7 µM (inactive) with M14; 19.7 µM (inactive) with SN12C. For the same molecule, the GI50 in the experiment on SK-MEL-5 was 16.4 µM (inactive); in the experiment with OVCAR-5, 18.6 µM (inactive); with UO-31 it was 23.4 µM (inactive); with LOX IMVI, 15.3 µM (inactive); in the experiment on SR it was 3.2 µM (inactive).
Consider `COc1cc(C(c2cc3c(cc2O)OCO3)N2CCCC2)cc(OC)c1OC` (stereo unspecified), for which the GI50 with OVCAR-8 was 16.1 µM (inactive); in the experiment on CCRF-CEM, 1.79 µM (inactive); in the experiment on SF-295, 18.6 µM (inactive); in the experiment on CAKI-1, 13.6 µM (inactive); in the experiment with OVCAR-3 it was 17.7 µM (inactive); in the experiment with MDA-N it was 13.4 µM (inactive). In addition, the GI50 with SK-MEL-2 is 19.6 µM (inactive); in the experiment with ACHN, 15.4 µM (inactive); in the experiment on MCF7, 26.9 µM (inactive); in the experiment with HT-29 it was 10.4 µM (inactive); in the experiment on PC-3, 17.3 µM (inactive); with M14, 24.5 µM (inactive). For the same molecule, the GI50 with SN12C is 12.2 µM (inactive); in the experiment on SK-MEL-5 it was 16.4 µM (inactive); in the experiment with OVCAR-5, 25.9 µM (inactive); in the experiment with UO-31, 14.8 µM (inactive); in the experiment with LOX IMVI, 14.6 µM (inactive).
Turning to `O=S(=O)(c1cc(Cl)ccc1Cl)N1CCN(S(=O)(=O)c2cc(Cl)ccc2Cl)CC1`, the GI50 in the experiment with OVCAR-8, in the experiment with SF-295, in the experiment on SF-539, in the experiment with CAKI-1, in the experiment with OVCAR-3 and in the experiment on MDA-N was > 100 µM (inactive) throughout. Further, the GI50 in the experiment on SK-MEL-2 is 0.403 µM (active); in the experiment on ACHN it was > 100 µM (inactive); in the experiment on MCF7, > 100 µM (inactive); in the experiment with HT-29, > 100 µM (inactive); in the experiment with PC-3, > 100 µM (inactive); in the experiment on M14, > 100 µM (inactive). Further, the GI50 in the experiment on SN12C was > 100 µM (inactive); in the experiment on SK-MEL-5, > 100 µM (inactive); with OVCAR-5, 16.3 µM (inactive); in the experiment with UO-31, > 100 µM (inactive).
Regarding `CC1CC(N2CCOCC2)=Nc2ccccc2N1Cc1ccccc1` (stereo unspecified), the GI50 was 88.5 µM (inactive) in the experiment with OVCAR-8; > 100 µM (inactive) with CCRF-CEM; 57.7 µM (inactive) with SF-295; 25.2 µM (inactive) in the experiment with CAKI-1; 43.9 µM (inactive) in the experiment with OVCAR-3; > 100 µM (inactive) in the experiment with SK-MEL-2. For the same molecule, the GI50 was > 100 µM (inactive) with ACHN; 38.7 µM (inactive) with HT-29; 50.6 µM (inactive) in the experiment on PC-3; > 100 µM (inactive) in the experiment with M14; > 100 µM (inactive) with SN12C; 36.3 µM (inactive) in the experiment with SK-MEL-5. Besides, the GI50 in the experiment on OVCAR-5 was > 100 µM (inactive); in the experiment with UO-31, > 100 µM (inactive); in the experiment on LOX IMVI it was 43.9 µM (inactive).
Consider `CC1=CC(=O)/C(=C/n2c(=S)[nH]c3ccccc32)C(=O)O1`, for which the GI50 in the experiment with OVCAR-8 is > 100 µM (inactive); in the experiment on CCRF-CEM it was 58.9 µM (inactive); in the experiment with SF-295, > 100 µM (inactive); in the experiment with SF-539, > 100 µM (inactive); in the experiment with CAKI-1 it was > 100 µM (inactive); with OVCAR-3, > 100 µM (inactive). Further, the GI50 with MDA-N, with SK-MEL-2, with ACHN, in the experiment with MCF7, in the experiment on HT-29 and with PC-3 was > 100 µM (inactive) in each case. The GI50 in the experiment on M14, in the experiment on SN12C, in the experiment on OVCAR-5, with UO-31 and in the experiment with LOX IMVI was > 100 µM (inactive) each time.
For `CC1(C)C(CCO)CC1n1cc(I)c(=O)[nH]c1=O` (stereo unspecified), the GI50 with CCRF-CEM, in the experiment on SF-295, with SF-539, in the experiment with CAKI-1, in the experiment with OVCAR-3 and in the experiment on MDA-N was > 100 µM (inactive) throughout. Further, the GI50 in the experiment on SK-MEL-2, in the experiment on ACHN, with MCF7, in the experiment with PC-3, in the experiment with M14 and in the experiment with SN12C was > 100 µM (inactive) in each case. Further, the GI50 in the experiment with SK-MEL-5, in the experiment with OVCAR-5, in the experiment with UO-31 and in the experiment on LOX IMVI was > 100 µM (inactive) in each case.
Consider `NCCCCCNOCCCN`, for which the GI50 with OVCAR-8, with CCRF-CEM, in the experiment on SF-295, with SF-539, in the experiment with OVCAR-3 and with MDA-N was > 100 µM (inactive) in each case. The GI50 in the experiment with SK-MEL-2, with ACHN, in the experiment with HT-29, with PC-3, in the experiment on M14 and with SN12C was > 100 µM (inactive) each time. In addition, the GI50 with SK-MEL-5, in the experiment on OVCAR-5, in the experiment with UO-31, in the experiment with LOX IMVI and in the experiment with SR was > 100 µM (inactive) each time.
`NC(Cc1ccccc1)P(=O)(O)O` (stereo unspecified): the GI50 with OVCAR-8, with CCRF-CEM, in the experiment on SF-295, in the experiment with CAKI-1, in the experiment on OVCAR-3 and in the experiment with MDA-N was > 100 µM (inactive) throughout. The GI50 in the experiment with SK-MEL-2, in the experiment on ACHN, in the experiment with HT-29, in the experiment on PC-3, in the experiment with M14 and with SN12C was > 100 µM (inactive) in each case. The GI50 in the experiment with SK-MEL-5, in the experiment with OVCAR-5, in the experiment with UO-31, with LOX IMVI and in the experiment on SR was > 100 µM (inactive) each time.
